Values of other authors as cited in patent US20120136048A1, “TOPICAL, PERIOCULAR, OR INTRAOCULAR USE OF TOCOTRIENOLS FOR THE TREATMENT OF OPHTHALMIC DISEASES” (priority 2009, published 2012).

Conditions: rat ocular tissues, every tissue to which it was administered

concentration in ocular tissues after topical ophthalmic administration	SMILES
increased markedly	CC(C)=CCC/C(C)=C/CC/C(C)=C/CC[C@]1(C)CCc2c(C)c(O)c(C)c(C)c2O1 [alpha-tocotrienol, Alpha-Tocotrienol]
no significant increase	Cc1c(C)c2c(c(C)c1O)CC[C@@](C)(CCC[C@H](C)CCC[C@H](C)CCCC(C)C)O2 [alpha-tocopherol]
